“Also recorded” adds a separate entry of the source. Read-outs that look alike come from different tables or passages of the source.
Experiments:
[1] = Anesthesia score chart comparing anesthetic agents for the four components of anesthesia (Table 1); parameters: key: 0 no effect; 1 minimal; 2 mostly; 3 maximal
[2] = system: experimental animals; conditions: cited from earlier work
[3] = system: dogs; assay: Oxygen transport and regional tissue oxygenation during graded induced hypotension; format: in vivo, dog; conditions: for O2 supply/demand ratio: graded hypotension to MAP 30 mmHg
Description: Arterial and pulmonary artery (Swan-Ganz) catheters were placed via a femoral cut down. […] Another PO2 sensor probe was placed on the surface of the liver, kidney, subcutaneous, and muscle of the chest wall through a small skin incision. Referring to FIG. 6, the dogs were divided into three groups: (a) hemorrhagic (n=7), (b) isoflurane (n=8), and (c) ATP (n=8). […] The following were measured and/or calculated: […] The data were analyzed using ANOVA with the Bonferroni t-test and unpaired t-test where appropriate, accepting p<0.05 as significant.

[4] = system: rabbits; assay: Hypothermia induced under adenosine or ATP infusion; format: in vivo, rabbit; conditions: for survival during body temperature lowering / shivering during body temperature lowering: external cooling; for survival during body temperature lowering: Run 7 (five rabbits), Run 8 (six rabbits); for shivering during body temperature lowering: Run 7, Run 8
Description: The hypothermic and rewarming effects of an adenosine compound are tested in experimental animals prepared similarly as in the rabbit model described herein to test for anesthetic effects, except that the body temperature is allowed to fall. In animal studies (rabbit) where the room has a temperature of approximately 22° C., the body temperature will fall from a norm of about 39° C. to about 32° C. in about three hours. If the animal is cooled further with ice bags, a temperature of approximately 22° C. can be achieved in three hours without cardiovascular decompensation. Rewarming is done with the aid of a thermal blanket and heat lamp. The effective dosages of adenosine compound ranged from about 100 μg/kg/min to about 5000 μg/kg/min.
Referring to FIG. 7, the body temperature versus time plots are shown for eight different experiments. In Run 1, adenosine 500 μg/kg/min was administered intravenously to rabbits for six hours. The administration was then stopped and the body temperatures were allowed to recover.
In Run 2, ATP 500 μg/kg/min was administered intravenously for six hours. At that time, the body temperature was 31.5° C. The animal's body temperature was allowed to recover by applying external heating for four hours when (at the arrow) the external heating was removed and the temperature was allowed to fall. The body temperature again fell.
In Run 3, ATP was administered intravenously. The body temperature stabilized after ten hours at 32.5° C.
In Runs 4, 5, and 6, adenosine was administered to rabbits until the body temperature reached a constant value. In Run 4, after five hours, the body temperature stabilized at 33° C. In Run 6, after six hours, the temperature stabilized at 31.5° C.
In Run 7, five unmedicated New Zealand rabbits were anesthetized with halothane in O2 using a face mask. The ear vein was cannulated with a 22 gauge plastic catheter for drug infusion. 500 μg/kg/min to 5500 μ/kg/min adenosine was administered IV. Body temperature was monitored through a rectal thermometer. The body temperature started at approximately 38.5° C. After the application of ice bags, the temperature dropped approximately 5.5° C./hr until a minimum body temperature of approximately 22° C. was achieved.
The ice bags were removed and external heating applied. The body temperature of all rabbits returned to normal, and the rabbits were apparently normal.
In a comparison, in Run 8, six rabbits were anesthetized with isofluane and external cooling applied.

[5] = system: experimental animals; assay: Lethal to effective dose margin; format: in vivo; conditions: for lethal dose relative to the dose required for analgesia: in vivo
Description: In contrast to other conventional anesthetics, the adenosine compounds are useful over a wide dose range. For example, adenosine is active over a as range of between 1 to 5000 μg/kg/min. In contrast, conventional anesthetic agents, such as isoflurane, have narrow effective ranges. The fatal to effective anesthetic ratio of isoflurane is 3.02±0.13. Other reports indicate that isoflurane has about 1.88 times the safety range of halothane. […] Of course, the anesthesiologist will err on the side of administering too little and, thereby, runs the risk of underdosing the patient. This need for caution may result in an inadequately anesthetized (subanesthetized) patient during the surgical procedure.
One great advantage observed with adenosine compounds is the wide margin for error on effective therapeutic range. This advantage is exemplified by adenosine where the lethal dose is about 100 times the dose required for analgesia, and ATP where the lethal dose is greater than 150 times the amount required for analgesia.

[6] = system: surgical patients; assay: ATP infusion to attenuate surgical stress response in patients
[7] = system: surgical patients; assay: ATP anesthesia replacing enflurane or N2O in patients undergoing oral surgery
[8] = system: rabbits; assay: Replacement of enflurane anesthesia by ATP infusion, electrical tail stimulation and tail clamp
[9] = system: rabbits; conditions: rabbit, in vivo
[10] = system: New Zealand white rabbits; assay: Electrical tail stimulation screening: head lift (hypnotic) and escape movement (analgesic) thresholds; format: in vivo, rabbit
[11] = system: rabbits; assay: Analgesic activity of adenosine compared with morphine sulfate, tail/ear clamp and electrical stimulation; conditions: under 60% N2O, infusion, n = 6
[12] = system: New Zealand white rabbits
[13] = GROUP A spontaneously breathing, ATP infusion time 60 min, n = 18, mean
[14] = GROUP A spontaneously breathing, ATP infusion time 120 min, n = 16, mean
[15] = GROUP A spontaneously breathing, ATP infusion time 180 min, n = 3, mean
[16] = GROUP A spontaneously breathing, ATP infusion time 240 min, n = 1
[17] = GROUP B mechanically breathing, ATP infusion time 60 min, n = 14, mean
[18] = GROUP B mechanically breathing, ATP infusion time 120 min, n = 10, mean
[19] = GROUP B mechanically breathing, ATP infusion time 180 min, n = 5, mean
[20] = GROUP B mechanically breathing, ATP infusion time 240 min, n = 4, mean
[21] = N2O 60%, ENF 2.0-[…], ATP 362 ± 164 μg/kg/min, Mean ± SD, n = 6
[22] = increasing doses, 60% N2O baseline sedation, FIG. 1
[23] = Run 7, 500 to 5500 μg/kg/min IV, ice bags

FC(F)OC(Cl)C(F)(F)F (stereo not shown) [isoflurane]
Antinociception (analgesia, less pain perception) ([1]; Anesthesia Score 0 to 3): 1
Inhibition of Stress (autonomic responses: blood pressure, heart rate; endocrine and metabolic responses) ([1]; Anesthesia Score 0 to 3): 1
Muscle Relaxation ([1]; Anesthesia Score 0 to 3): 1
Sleep (unconsciousness, amnesia, sedation) ([1]; Anesthesia Score 0 to 3): 3
TOTALS of Anesthesia Score ([1]; sum of the four components): 6
fatal to effective anesthetic ratio ([2]; in vivo): 3.02±0.13
safety range relative to halothane ([2]; other reports): about 1.88 times
O2 supply/demand ratio [3]: reduced O2 supply/demand ratio
O2 delivery (DO2) ([3]; graded hypotension, higher dosage): seriously depressed DO2
survival during body temperature lowering [4]: one rabbit expired due to ventricular fibrillation; also recorded: another expired due to pulmonary edema
shivering during body temperature lowering [4]: shiver violently

Nc1ncnc2c1ncn2[C@@H]1O[C@H](COP(=O)(O)OP(=O)(O)OP(=O)(O)O)[C@@H](O)[C@H]1O [ATP, adenosine triphosphate]
deaths on overdose ([5]; enormous overdoses): no experimental animals died
lethal dose relative to the dose required for analgesia [5]: greater than 150 times
BE [6, 13]: −3.3
Hb [6, 13]: 12.6
PCO2 [6, 13]: 44.1
PO2 [6, 13]: 140.9
pH (arterial blood gas) [6, 13]: 7.33
BE [6, 14]: −3.2
Hb [6, 14]: 12.8
PCO2 [6, 14]: 41.9
PO2 [6, 14]: 137.9
pH (arterial blood gas) [6, 14]: 7.34
BE [6, 15]: −3.0
Hb [6, 15]: 11.9
PCO2 [6, 15]: 39.9
PO2 [6, 15]: 165.5
pH (arterial blood gas) [6, 15]: 7.36
BE [6, 16]: −4.1
Hb [6, 16]: 10.7
PCO2 [6, 16]: 31.0
PO2 [6, 16]: 115.1
pH (arterial blood gas) [6, 16]: 7.39
BE [6, 17]: −4.2
Hb [6, 17]: 11.7
PCO2 [6, 17]: 40.2
PO2 [6, 17]: 140.3
pH (arterial blood gas) [6, 17]: 7.34
BE [6, 18]: −4.8
Hb [6, 18]: 11.2
PCO2 [6, 18]: 40.1
PO2 [6, 18]: 142.6
pH (arterial blood gas) [6, 18]: 7.33
BE [6, 19]: −5.2
Hb [6, 19]: 11.8
PCO2 [6, 19]: 41.6
PO2 [6, 19]: 130.4
pH (arterial blood gas) [6, 19]: 7.32
BE [6, 20]: −5.4
Hb [6, 20]: 11.7
PCO2 [6, 20]: 45.4
PO2 [6, 20]: 130.1
pH (arterial blood gas) [6, 20]: 7.288
Intra-operative urine output ([6]; Group A, spontaneous ventilation, n=20): 58.7 (±43.3) ml/hr
Intra-operative urine output ([6]; Group B, mechanically ventilated, n=14): 71.8 (±44.6) ml/hr
emergence from anesthesia ([6]; after discontinuation of N2O and ATP): all patients emerged from anesthesia smoothly
cardiovascular and neurobehavioral responses to surgery ([6]; continuous infusion in combination with N2O): effectively inhibited
ENF requirement ([6]; continuous infusion of ATP): markedly reduced
hemodynamic and respiratory functions ([6]; during ATP infusion): well maintained
ATP infusion dose titrated until ENF or N2O was completely replaced ([7]; 14 patients, Mean ± SD): 108 ± 21 µg/kg/min
Urine output ([7]; 14 patients, Mean ± SD): 111 ± 16 mL/h
ventilatory or blood gas deterioration ([7]; during ATP infusion in spontaneously breathing patients): No ventilatory or blood gas deterioration was seen
O2 supply/demand ratio [3]: positive O2 supply/demand ratio in all stages of hypotension
body temperature ([4]; Run 2, 500 μg/kg/min intravenously for six hours): 31.5 °C
body temperature at which it stabilized ([4]; Run 3, intravenously, after ten hours): 32.5 °C
purposeful escape movements on electrical tail stimulation ([8]; FIG. 4): purposeful escape movements decreased
analgesic effect after the infusion had stopped ([8]; IV ATP): selective analgesic effect persisted
DBP [8, 21]: 83 ± 16 mmHg
HR [8, 21]: 278 ± 26 bpm
PaCO2 [8, 21]: 22 ± 3 mmHg
PaO2 [8, 21]: 145 ± 24 mmHg
RR (Respiratory Rate) [8, 21]: 81 ± 14 bpm
SBP [8, 21]: 112 ± 20 mmHg

Nc1ncnc2c1ncn2[C@@H]1O[C@H](CO)[C@@H](O)[C@H]1O [adenosine]
BP (Systolic BP) [9]: 101 ± 19 mmHg
HR [9]: 230 ± 24 bpm
PaCO2 [9]: 25 ± 4 mmHg
PaO2 [9]: 126 ± 8 mmHg
RR (Respiratory Rate) [9]: 85 ± 19 bpm
lethal dose relative to the dose required for analgesia [5]: about 100 times
drug accumulation or respiratory depression ([10]; continuous infusion for prolonged times): did not cause drug accumulation or respiratory depression
EM (purposeful escape movement, analgesic) threshold responses [10, 22]: elevated EM responses
HL (head lift, hypnotic) threshold responses [10, 22]: remained low
hemodynamic responses to noxious stimulation ([10]; rabbit, in vivo): effectively blocked
respiratory and blood gas effects ([10]; spontaneously breathing rabbits): maintained normal respiratory and blood gas parameters
dose that completely suppressed the responses to both kinds of stimulation (ED90) [11]: 188 ± 20 µg/kg/min
reduction of the response to the noxious stimulation ([12]; intrathecal administration): as effective as intrathecal fentanyl
Δ HR ([12]; rabbit, in vivo): −22 ± 5 bpm
Δ MAP ([12]; rabbit, in vivo): −4 ± 5 mmHg
Δ PaCO2 ([12]; rabbit, in vivo): −6.8 ± 2.1 mmHg
Δ PaO2 ([12]; rabbit, in vivo): +10 ± 14
Δ RR ([12]; rabbit, in vivo): −4 ± 10 bpm
body temperature at which it stabilized ([4]; Run 4, after five hours): 33 °C
body temperature at which it stabilized ([4]; Run 6, after six hours): 31.5 °C
minimum body temperature achieved [4, 23]: approximately 22 °C
rate of body temperature drop [4, 23]: approximately 5.5 ° C./hr
survival during body temperature lowering [4]: All five rabbits survived
shivering during body temperature lowering [4]: no shivering or other apparent discomfort was observed

Source: patent US6642209B1, “Use of adenosine compounds to alleviate or normalize pathologically hyperexcited sensory nerve function in a human patient” (priority 1990, dated 2003)
